Experimental data from ChEMBL document CHEMBL5724709, “EUbOPEN Chemogenomics Library - IncuCyte” (2024).
Peptide text beside a SMILES is read from it. * marks the point of attachment. Cbz = O=C(OCc1ccccc1)*; CH2F = FC*

Experiments:
Assay type in all cases: toxicity, cell-based
HEK-293T = test: Incucyte cell viability with HEK293T; conditions: human, 24 h, 10 µM, compound concentration 10 uM
Fibroblast = test: Incucyte cell viability with human fibroblast; conditions: 24 h, 10 µM, compound concentration 10 uM
U2OS = test: Incucyte cell viability with U2OS; conditions: human, 24 h, 10 µM, compound concentration 10 uM
Note: unitless GR value; below 1 slowed growth and below 0 cell loss.

Row | SMILES | Growth Rate (HEK-293T; replicate number 1) | Growth Rate (HEK-293T; replicate number 2) | Growth Rate (Fibroblast; replicate number 1) | Growth Rate (Fibroblast; replicate number 2) | Growth Rate (U2OS; replicate number 1) | Growth Rate (U2OS; replicate number 2)
1 | CNC(=O)Cn1cc(-c2ccc3c(c2)[C@H](F)C[C@]32NC(=O)N(CC(=O)N(Cc3ccc(F)cc3)[C@@H](C)C(F)(F)F)C2=O)cn1 | -0.53 | 0.24 | 0.7 | -0.43 | -0.12 | 0.63
2 | C[C@H](CN[C@@H](C(=O)Nc1ccc(-c2cnn(C)c2)cn1)c1ccccc1)c1ccc(C#N)cc1 | 0.04 | 0.3 | 0.34 | -0.53 | 0.58 | 0.39
3 | CCN1C(C)(C)CC(Oc2ccc(C(=O)Nc3ccc(NC(=O)Nc4cc(C(C)(C)C)on4)cc3)nc2)CC1(C)C | -0.29 | 0.58 | 0.74 | 0.78 | 0.51 | 0.66
4 | Cl.Cl.Nc1ncnc2c1ncn2[C@@H]1O[C@H](C(=O)N2CCN(CC(=O)Nc3cccc4c3CNC4=O)CC2)[C@@H](O)[C@H]1O | 0.67 | 1 | 1 |  | 1 | 0.84
5 | Cc1ncsc1-c1ccc([C@H](C)NC(=O)[C@@H]2C[C@@H](O)CN2C(=O)[C@@H](NC(=O)CNC(=O)c2ccc(F)c(-c3ccc(N4C[C@@H](C)N(C)[C@@H](C)C4)c(NC(=O)c4c[nH]c(=O)cc4C(F)(F)F)c3)c2)C(C)(C)C)cc1 | 0.6 | 0.78 | -0.11 | 0.89 | 1 | 0.89
6 | CC(C)n1nc(-c2cc3cc(O)ccc3[nH]2)c2c(N)ncnc21 | -0.17 | -0.09 | 0.59 | 0.98 | -0.49 | -0.01
7 | CCCOC(=O)N1CCN(C(=O)c2ccc3c(Cl)cc(-c4ccc(C5(N)CC5)cc4)nc3c2)C[C@H]1C | 0.01 | 0.3 | 1 | -0.86 | 0.52 | 1
8 | Cc1ccc(F)c2cc(C(=O)N[C@@H]3CCC[C@H](N4CC[C@H](N(C)S(C)(=O)=O)C4)C3)[nH]c12 | 0.35 | 0.62 | 1 |  | 1 | 0.67
9 | O=C(c1ccc2c(ccn2-c2ccc(F)cc2)c1)N1CC(N2CCN(C(=O)c3nccs3)CC2)C1 | 0.76 | 0.97 | 0.6 | 1 | 0.99 | 0.91
10 | CCCC1O[C@@H]2C[C@H]3[C@@H]4CCC5=CC(=O)C=C[C@]5(C)[C@H]4[C@@H](O)C[C@]3(C)[C@]2(C(=O)CO)O1 (some centres not stated) [BUDESONIDE] | 0.73 | 0.82 | 0.7 | 1 | 1 | 0.58
11 | Cc1cc(OCc2nnc(SC3CCCC3)n2-c2cccnc2)ccc1-c1ccc(S(C)(=O)=O)cc1 | -0.22 |  | -0.37 | -0.82 | -0.5 | -0.4
12 | COC(=O)CC[C@H](NC(=O)[C@H](Cc1c[nH]c2ccccc12)NC(=O)OCc1ccccc1)C(=O)N[C@@H](Cc1cnc[nH]1)C(=O)N[C@@H](CC(=O)OC)C(=O)CF (Cbz-WE(OMe)HD(OMe)-CH2F) | 0.94 | 0.95 | 0.4 | 1 | 0.82 | 0.99
13 | Cc1ncsc1-c1ccc(CNC(=O)[C@@H]2C[C@@H](O)CN2C(=O)[C@@H](NC(=O)COCCOCCOCCNC(=O)C[C@@H]2N=C(c3ccc(Cl)cc3)c3c(sc(C)c3C)-n3c(C)nnc32)C(C)(C)C)cc1 | 0.01 | 0.16 | 0.23 | -0.26 | -0.19 | 0.31
14 | CC1(C)c2cccc(C(=O)NO)c2CN1c1cnc(C(F)(F)F)cn1 | 0.61 | 0.71 | 1 | -0.04 | 0.15 | 1
15 | C[C@H]1CCCN1Cc1nc2cc(NC(=O)c3ccc4c(cnn4C)c3)ccc2[nH]1 | 0.37 | 0.49 | 1 | 0.78 | 0.16 | 0.68
16 | Cn1ncc2c(-c3c(-c4ccc(F)cn4)nn4c3COC(C)(C)C4)ccnc21 | 0.85 | 0.8 | 0.66 | 1 | 0.55 | 0.95
17 | Cc1ncsc1-c1ccc(CNC(=O)[C@@H]2C[C@@H](O)CN2C(=O)[C@@H](NC(=O)COCCOCCOc2ccc(-c3ccc4ncnc(Nc5ccc(OCc6cccc(F)c6)c(Cl)c5)c4c3)cc2)C(C)(C)C)cc1 | 1 |  | 1 | 0.62 | 1 | 0.6
18 | O=C(O)/C(S)=C/c1ccc(I)cc1 | 0.71 | 0.86 | 1 | 0.47 | 1 | 
19 | C[C@@H]1CN(c2ncc(Cl)c(Nc3ccc4c(c3)n(CCC(C)(C)O)c(=O)n4C)n2)C[C@H](C)C1(F)F | 0.18 | 0.21 | 0.91 | -0.13 | 0.72 | 0.69
20 | CNC(=O)c1cc(Nc2ccnc(Nc3ccc(CCNC(=O)OC(C)(C)C)cc3)n2)[nH]n1 | 0.07 | 0.24 | 1 |  | 0.07 | 0.79
21 | CNCCN(C)Cc1cn[nH]c1-c1ccc(OC2CC(OCCC3CCOCC3)C2)cc1 (configuration not stated) | 0.64 | 0.82 | 0.77 | 0.95 | 0.23 | 1
22 | Cn1cc(NC(=O)c2cc(F)cc(F)c2)c(C(=O)NC2CCNCC2)n1 | 0.67 | 0.9 | 0.67 | 1 | 0.63 | 0.71
23 | CN(C)CCCN(CC[C@H](N)C(=O)O)C[C@H]1O[C@@H](n2cnc3c(N)ncnc32)[C@H](O)[C@@H]1O.O=C(O)C(F)(F)F | 0.85 | 0.98 | 0.74 | 0.03 | 1 | 
24 | CC(C)(C)OC(=O)Nc1ccc(-c2cc(C(=O)NCCCCCCC(=O)NO)no2)cc1 | 0.72 | 0.67 | 1 | -0.09 | 0.28 | 0.63
25 | Cc1cc2cc(NS(=O)(=O)c3ccc(C#N)cc3)ccc2n(C)c1=O | 0.88 |  | 0.71 | 0.65 | 1 | 
26 | C[C@H](NC(=O)[C@H](Cc1ccccc1)NC(=O)OCc1ccccc1)C(=O)CF | 0.53 | 0.77 | 1 |  | 0.43 | 0.93
27 | Cc1nc(Nc2ncc(C(=O)Nc3c(C)cccc3Cl)s2)cc(N2CCN(CCO)CC2)n1 [DASATINIB ANHYDROUS] | -0.16 | 0.04 | 1 | 0.23 | -0.47 | -0.3
